Patent publication US20260308158A1, “TARGETING RNAS ASSOCIATED WITH TAUOPATHIES WITH SMALL MOLECULES” (University of Florida Research Foundation, Incorporated, priority 2023, published 2026)

Experiments:
WT I17T mutant RNA = experiment: In vitro Chem-CLIP, WT I17T RNA; format: binding; settings: 50 μM
Method: (§1) In Vitro Chemical Cross-linking and Isolation by Pull Down (Chem-CLIP) and Competitive Chem-CLIP (C-Chem-CLIP). Growth medium [Dulbecco's modified eagle medium (DMEM; corning, 10-013-CM) with 1× Glutagro (corning)] and 10% (v/v) fetal bovine serum (FBS; Sigma, 12003C) was inactivated by heating at 95° C. for 15 min and slowly cooling to room temperature. Approximately 10,000 counts of 32P 5′-end labeled tau WT, DDPAC, WT+I17T, or DDPAC+I17T RNA were folded in 10 μL growth medium by heating at 65° C. for 5 min and slowly cooling to room temperature. Chem-CLIP probe 3 or negative control probe 4 was then added into the folded RNA in a total volume of 20 μL, and the mixtures were incubated at 37° C. for 1 h. For C-Chem-CLIP, dilutions of competing compound 2 were incubated with RNA for 30 min before adding 3. […]
(§2) The Chem-CLIP probe 3 or control probe 4 was then clicked to disulfide biotin azide (2 μL of 10 mM solution prepared in DMSO solution per sample; Click Chemistry Tools, catalog no. 1168-10). […] The radioactive signal from bound RNAs (on the beads) and unbound RNAs (in the wash buffer) was measured by using a Beckman Coulter LS6500 Liquid Scintillation Counter as Rbound and Runbound. Enrichment was calculated as the percentage of radiolabeled RNA captured by beads calculated as Rbound/(Rbound+Runbound).

[1] = tested on: MAPT pre-mRNA in LAN5 cells; experiment: Chem-CLIP-Map-Seq in LAN5 cells; format: cell-based; settings: 3 at 1.5 μM
Method: Chem-CLIP-Map-Seq. Chem-CLIP-Map-Seq was performed as previously described.^32 Briefly, LAN5 cells were grown to ~80% confluency in 100 mm diameter dishes and treated with 1.5 μM of 3 for 12 h. Total RNA was extracted and pulled down as described in Measuring Cellular Occupancy by Chem-CLIP and C-Chem-CLIP. RT was carried out using 1 μg of RNA pulled down by 3, […] of a MAPT gene-specific primer (5′-[…] (SEQ ID NO: 7)), and SuperScript III (Invitrogen, 18080400) in a total volume of 10 μL per the manufacturer's protocol.
After digestion with RNase A and RNase H (part of the Superscript III protocol), the cDNA from the RT reaction was cleaned up using RNA Clean XP beads (Beckman Coulter) according to the manufacturer's protocol. The purified cDNA was ligated to a 3′ ssDNA adaptor (5′-Phosphate-[…]-[…]-3C spacer (SEQ ID NO: 8)) by incubating 2 μL 10× T4 RNA Ligase Buffer, 1 μL of 1 mM ATP, 10 μL 50% (w/v) PEG 8000, 5 μL cDNA, 1 μL of 20 μM ssDNA adaptor, and 1 μL of T4 RNA Ligase [New England BioLabs, Inc. (NEB)]. The ligated cDNA was purified again with RNAClean XP beads as described above.
PCR amplification was performed with the purified ligated cDNA by using Phusion polymerase (NEB) with cycling conditions of 98° C. for 30 s, 65° C. for 20 s, and 72° C. for 60 s and forward (5′-[…] (SEQ ID NO: 9)) and reverse (5′-[…] (SEQ ID NO: 10)) primers for 25 cycles. […]

DDPAC I17T mutant RNA = experiment: In vitro Chem-CLIP, DDPAC I17T RNA; format: binding; settings: 50 μM
Method: as §1, §2

[2] = tested on: DDPAC I17T MAPT mini-gene pre-mRNA; experiment: Chem-CLIP in HeLa cells transfected with DDPAC I17T mini-gene; format: cell-based; settings: 1.5 μM
Method: (§3) Measuring Cellular Occupancy by Chem-CLIP and C-Chem-CLIP. LAN5 cells were grown to ~80% confluency in 100 mm diameter dishes. HeLa cells were transfected as described in the Luciferase Reporter Assay to Study Exon 10 Alternative Splicing except they were re-plated in 100 mm diameter dishes and grown to ~80% confluency (~1 day). The cells were then treated with 1.5 μM of 3 or 4 for 12 h. For C-Chem-CLIP, dilutions of competing compounds 1 or 2 were pre-incubated with cells for 12 h prior to adding 3. After addition of 3, the cells were incubated for an additional 12 h. After the treatment period, whether for Chem-CLIP or C-Chem-CLIP studies, the cells were washed with 10 mL of 1×DPBS. Ice-cold 1×DPBS (10 mL) was then added to the plate followed by irradiation with 365 nm light in a UV Stratalinker 2400 (Stratagene). Cells were scraped with a cell scraper, transferred to a 15 mL conical vial, and collected by centrifugation. Total RNA was extracted using TRIzol LS Reagent (Invitrogen) per the manufacturer's protocol. […]
(§4) RT-qPCR was performed on RNA samples before and after pull-down as described in Real-Time Quantitative PCR to enable calculation of fold enrichment in the pulled down samples. Relative fold enrichment of tau pre-mRNA was measured using Equation 3: […]

[3] = tested on: WT MAPT mini-gene pre-mRNA; experiment: Chem-CLIP / C-Chem-CLIP in HeLa cells transfected with WT mini-gene; format: cell-based; settings: 3 at 1.5 μM, HeLa WT mini-gene
Method: as §3, §4

WT SRE RNA = experiment: In vitro Chem-CLIP, WT SRE RNA; format: binding
Method: as §1, §2

[4] = tested on: endogenous MAPT pre-mRNA in LAN5 cells; experiment: Chem-CLIP / C-Chem-CLIP in LAN5 cells; format: cell-based; settings: 3 at 1.5 μM
Method: as §3, §4

DDPAC SRE RNA = experiment: In vitro Chem-CLIP, DDPAC SRE RNA; format: binding
Method: as §1, §2

[5] = tested on: WT I17T MAPT mini-gene pre-mRNA; experiment: Chem-CLIP in HeLa cells transfected with WT I17T mini-gene; format: cell-based; settings: 1.5 μM
Method: as §3, §4

[6] = tested on: DDPAC MAPT mini-gene pre-mRNA; experiment: Chem-CLIP / C-Chem-CLIP in HeLa cells transfected with DDPAC mini-gene; format: cell-based; settings: 3 at 1.5 μM, HeLa DDPAC mini-gene
Method: as §3, §4

[7] = in vitro Chem-CLIP, read-out: IC50 for engaging and pull-down of RNA

Question: Which results are given for `C#CCCC1(CCC(=O)NCCN(CCCc2cnc(N)cc2OC)CCCn2cnc3c4ccccc4n(C)c3c2=O)N=N1` [Compound 3]?
Answer: percent pull-down (engagement) (WT I17T mutant RNA): 15±0.9%; cross-linking site in MAPT RNA [1]: cross-linking occurred to the G in the 5′ CG closing base pair of the A-bulge; percent pull-down (engagement) (DDPAC I17T mutant RNA): 9±0.7%; enrichment of mutant reporter [2]: nor was enrichment observed; enrichment of MAPT reporter [3]: 3.9±0.1 fold; maximum percent pull-down (WT SRE RNA; 10 and 50 μM): ~ 40%; IC50 (WT SRE RNA; [7]): ~1000 nM; enrichment of MAPT pre-mRNA [4]: 3.6±0.2 fold; maximum percent pull-down (DDPAC SRE RNA; 10 and 50 μM): ~ 40%; IC50 (DDPAC SRE RNA; [7]): ~1000 nM; enrichment of mutant reporter [5]: nor was enrichment observed; enrichment of MAPT reporter [6]: 3.8±0.1 fold
